Tested on: Artemia salina
Test: Toxicity against Artemia salina after 24 hrs
Type: organism-based
Settings: in vivo

Row | SMILES | LD50
1 | C#CCCCC1OC(=O)CCNC(=O)[C@@H](Cc2ccccc2)N(C)C(=O)[C@H](C(C)C)OC(=O)[C@H](C(C)C)NC(=O)C1(C)C (some centres not stated) [YANUCAMIDE A] | 5 ppm
2 | C#CCCCC1OC(=O)CCNC(=O)[C@@H](Cc2ccccc2)N(C)C(=O)[C@H](C(C)C)OC(=O)[C@H]([C@H](C)CC)NC(=O)C1(C)C (some centres not stated) [YANUCAMIDE B] | 5 ppm
